Source: patent US20260023070A1, “OPTOGENETIC ALPHA-SYNUCLEIN AGGREGATION SYSTEM-BASED COMPOUND SCREENING PLATFORM IN PD-hiPSC-mDA NEURONS” (The Johns Hopkins University, priority 2022, published 2026)

Tests used:
[1] = tested on: blue light-illuminated opto-α-syn-mDA neurons; experiment: Autophagy and aggregate clearance in blue light-illuminated opto-α-syn-mDA neurons; format: cell-based, human; settings: additional treatment with BAG 956, blue light-illuminating condition
Experimental: Because autophagy can be activated by the inhibition of PI 3-kinase (PI3K) or the PDK1 pathway, it was tested whether treatment with BAG 956 can induce the autophagic flux to decrease α-syn aggregates in opto-α-syn mDA neurons and MOs.

opto-α-syn SH-SY5Y cells = experiment: OASIS-based high-content imaging assay of light-induced α-syn aggregation (5G4 staining, Aggregates Induction Score); format: cell-based, human; settings: for AIS, aggregates induction score: validation of 19 hits, 24-well plates, blue light, AIS normalized to positive control (blue light, DMSO) set as 1.0; for AIS compared to blue light-illuminated DMSO control: two independent experiments, 24-well culture conditions, blue light stimulation
Experimental: The opto-α-syn expressing SH-SY5Y cells were seeded in 96-well black flat bottom imaging microplates (Falcon) at 30,000 cells per well in 100 μL of complete media using E1-ClipTip electronic multichannel pipette (Thermo Fisher Scientific) and incubated in 37° C. and 5% CO2 humidified incubator. After 18 h of incubation, 10 μL of 10 μM compounds (column 2 to 10) or 1% DMSO (column 1 and 12) were added (final concentration of DMSO is 0.1%). In order to induce aggregations, the plates were illuminated with blue light (26 μW/mm^2) on customized blue light illumination 96-well plates for 2 h. Afterward, cells were fixed in 4% paraformaldehyde (PFA) for 15 min and stained with the aggregated-α-syn antibody (5G4) after permeabilization with 0.1% Triton X-100/0.5% BSA/PBS solution. […] To analyze images, the automated aggregation quantification algorithm and cell counting algorithm in the form of macro are developed using ImageJ software. Briefly, the algorithm includes the inversion, subtracting background, threshold selection, analyzing particles with ranged size and circularity. The Aggregates Induction Score (AIS) is calculated using, the following equation: […]
where N^agg is the number of aggregates, ^Ntotal is the number of total cells. The AIS in each well is normalized by the AIS in positive control which is set as 1.0. […] The hit selection strategy was based on calculated AIS; hits were defined as AIS<0.5. […] Two independent experiments were performed, and total 10 images per well are analyzed to calculate AIS.
As illustrated in FIGS. 8A-8E, high-content imaging screening with the optogenetic α-syn aggregation system was performed, following the schematic representation of the process of high-content imaging (HCI) screening with optogenetics-assisted method of alpha-synuclein aggregation induction system (OASIS) (FIG. 8A). SH-SY5Y cells expressing opto-α-syn were in dark or exposed to blue light (26 μW/mm^2 at 470 nm, 1 Hz, 1 s) for 1.5 h under 96-well plate culture conditions, and then immunostained with 5G4 antibody. The equation of Aggregates Induction Score (AIS) (FIG. 8B) was used for the calculation of Z′-factor for HCI screening with OASIS (FIG. 8C). […] Arrow represents the degree of separation (Z′-factor) between light-illuminated and darkness controls. […] Detailed information of numbered compounds was described in Table 1. One-way ANOVA followed by Dunnett's post hoc test (n=10 or 20, 5 or 10 images each from two independent experiments). *P<0.05, **P<0.01, ***P<0.001, ****P<0.0001.
As illustrated in FIGS. 9A-9B, high-content imaging screening with the optogenetic α-syn aggregation system was performed. The measurement of 5G4^+ aggregates in opto-mock or opto-α-syn SH-SY5Y neuronal cells was assessed. Cells were in dark or exposed to blue light (26 μW/mm^2 at 470 nm, 1 Hz, 1 s) for 1.5 h, and then immunostained with 5G4 antibody. […] Images were converted to grayscale, and a threshold was adjusted to exclude the background based on the size of particles. Once the value of threshold was determined, all the images were applied with the fixed threshold, and then the number of aggregates was measured (FIG. 9A). Number of DAPI from the original images were counted (FIG. 9B). Representative images of opto-α-syn SH-SY5Y neuronal cells treated with 19 compounds under 24-well plate culture conditions were imaged. SH-SY5Y cells expressing opto-α-syn were in dark or exposed to blue light (34 μW/mm^2 at 470 nm, 1 Hz, 0.5 s) for 1.5 h, and then immunostained with 5G4 antibody.

[2] = tested on: opto-α-syn PD hiPSC-derived mDA neurons; experiment: Light-induced α-syn aggregation and neurotoxicity in opto-α-syn PD hiPSC-derived mDA neurons; format: cell-based, human; settings: blue light 7 days; compared to DMSO control; significant at 1 and 10 nM CDC, 10 and 100 nM BAG
Experimental: Whether these potential hit compounds can inhibit α-syn aggregation and rescue aggregation-induced neuronal toxicity was tested on PD hiPSC-derived mDA neurons. The top 5 ranked small compounds in FIGURE SE were selected and these compounds to were used to treat opto-α-syn PD hiPSC-derived mDA neurons at three different concentrations (1 nM, 10 nM, 100 nM) with blue light stimulation. […] Overall, the two compounds were finally selected among the potential hit drugs from our novel opto-α-syn neuronal cell model-based primary screening (FIG. 11D), and they considerably rescued neuronal cell death from aggregation-induced TH^+ mDA neuron-selective toxicity in PD-iPSC derived neurons. To identify possible molecules involved in this compound-mediated recovery of TH^+ mDA neurons, RNA-sequencing (RNA-seq) analysis was performed with four different samples (dark condition with DMSO, blue light stimulation with DMSO, blue light stimulation with BAG treatment, and blue light stimulation with CDC treatment). To find BAG- or CDC-responsive genes, differentially expressed genes (DEGs) of DMSO-treated samples upon blue light stimulation were first extracted, and then the DEGs were filtered with criteria of which became non-DEGs in response to CDC or BAG treatment. […]
The effect of 5 selected compounds on opto-α-syn-expressing PD hiPSC-derived mDA neurons was evaluated. […]

[3] = tested on: mouse primary neurons treated with α-syn PFF; experiment: α-syn PFF model in mouse primary neurons (TX-insoluble pathologic α-syn); format: cell-based
Experimental: To validate the effects of these two compounds on the OASIS-independent model, α-syn PFF were treated with mouse primary neurons and non-OASIS-human PD hiPSC-derived mDA neurons with CDC 021 and BAG 956.

Row | SMILES | AIS, aggregates induction score (opto-α-syn SH-SY5Y cells) | other results
1 | CO/C1=C\C(C)=C\[C@@H](C)[C@@H](O)[C@@H](C)C/C(C)=C/C=C/[C@H](OC)[C@@H]([C@@H](C)[C@@H](O)[C@H](C)[C@@]2(O)C[C@@H](O)[C@H](C)[C@@H](C(C)C)O2)OC1=O [bafilomycin A1] | – | BAG 956-mediated level of TH+ mDA neurons [1]: reversed; BAG 956-mediated reduction of 5G4+ α-syn aggregates [1]: reversed
2 | O=C(O)c1ccccc1C(=O)Nc1ccc(-c2ccccc2)cc1 [Kartogenin] | 0.98 | –
3 | CC(C)c1ccc2oc3nc(N)c(C(=O)O)cc3c(=O)c2c1 [Amlexanox] | 0.53 | –
4 | CN(C)CCc1c[nH]c2ccc(Cn3cncn3)cc12 [Rizatriptan benzoate] | 0.59 | –
5 | COc1cc2nc(N3CCC(N4CCCCC4)CC3)nc(NC3CCCCCC3)c2cc1OC.Cl.Cl [C 021 dihydrochloride] | 0.19 | AIS compared to blue light-illuminated DMSO control (opto-α-syn SH-SY5Y cells): significant decrease; survival rate of TH+ mDA neurons [2]: significant increase; pathologic α-syn in the Triton X-100 (TX)-insoluble fraction [3]: significantly reduced
6 | COc1c(C)c2c(c(O)c1C/C=C(\C)CCC(=O)O)C(=O)OC2 [Mycophenolic acid] | 0.57 | –
7 | O=C1NC(=O)c2c1c1c3ccccc3[nH]c1c1[nH]c3ccccc3c21 [Arcyriaflavin A] | 0.37 | AIS compared to blue light-illuminated DMSO control (opto-α-syn SH-SY5Y cells): significant decrease
8 | COc1c(C)c2c(c(O)c1C/C=C(\C)CCC(=O)OCCN1CCOCC1)C(=O)OC2 [Mycophenolate mofetil] | 0.71 | –
9 | CC1(C)C(=O)N=C2C1=C(O)C(=O)c1ccccc12 [BVT 948] | 0.36 | AIS compared to blue light-illuminated DMSO control (opto-α-syn SH-SY5Y cells): significant decrease
10 | C[C@@H]1C[C@H]2[C@@H]3CCC4=CC(=O)C=C[C@]4(C)[C@@]3(F)[C@@H](O)C[C@]2(C)[C@@]1(O)C(=O)CO [Dexamethasone] | 0.74 | –
11 | O=C1CCc2cc(OCCCCc3nnnn3C3CCCCC3)ccc2N1 [Cilostazol] | 0.65 | –
12 | CCCCCCCCCCC(C)(C)C(=O)Nc1c(OC)cc(OC)cc1OC [Compound C1976, CI 976] | 0.63 | –
13 | NS(=O)(=O)c1cc2c(cc1Cl)NC(C1CC3C=CC1C3)NS2(=O)=O (stereo not shown) [Cyclothiazide] | 0.68 | –
14 | CCc1c(C(=O)Nc2cc(S(=O)(=O)N(CC)CC)ccc2O)[nH]c(C)c1C(C)=O [XD 14] | 0.75 | –
15 | Cc1cc(Nc2nc(N[C@@H](C)c3ncc(F)cn3)ncc2Cl)n[nH]1 [AZD 1480] | 0.31 | AIS compared to blue light-illuminated DMSO control (opto-α-syn SH-SY5Y cells): significant decrease
16 | CCCN(CCC)CCc1ccc(OC)c(OCCc2ccccc2)c1.Cl [NE 100 hydrochloride] | 0.53 | –
17 | CCOC(=O)c1ccc(N(C)c2csc(-c3ccccc3)n2)cc1 [Neuropathiazol] | 0.73 | –
18 | CC(=O)c1cc2c(o1)C(=O)c1ccccc1C2=O [Napabucasin] | 0.97 | –
